Measured values as given in a compilation of properties of binary mixtures (doi:10.3390/app10238342).

Assay: xn = mol fraction of the nth substance listed
Conditions: 96.7 kPa

CS(C)=O + CC(=O)[O-].CCCCCCn1cc[n+](C)c1
x2 = 0
Conditions	viscosity [mPa·s]
303.15 K	1.81
308.15 K	1.66
313.15 K	1.52
318.15 K	1.4
323.15 K	1.3
328.15 K	1.2
338.15 K	1.04

CC(=O)[O-].CCCCCCn1cc[n+](C)c1 + CS(C)=O
viscosity [mPa·s]
Conditions	x1 = 0.057	x1 = 0.187	x1 = 0.257	x1 = 0.341	x1 = 0.446	x1 = 0.58	x1 = 0.757	x1 = 0.868	x1 = 1
303.15 K	2.7	4.6	9.2	18.7	41	74	250	420	800
308.15 K	2.46	–	–	15.8	32	60	182	290	530
313.15 K	–	3.7	6.9	13	27	–	133	212	370
318.15 K	2	3.2	5.9	10.8	–	41	–	156	260
323.15 K	1.86	2.9	5.2	9.3	17.9	35	78	115	190
328.15 K	1.72	2.6	4.7	8.1	14.7	29	60	88	145
333.15 K	1.58	2.31	4.2	–	–	25	47	68	110
338.15 K	1.47	–	3.6	6.4	10.9	21.3	–	55	88
